In PMC5814210, “2-Amino-3-methylcarboxy-5-heptyl-thiophene (TJ191) is a selective anti-cancer small molecule that targets low TβRIII-expressing malignant T-cell leukemia/lymphoma cells” (Oncotarget, 2017):
Where two headings read alike, the source gives them in different places.

What was measured:
[1] = test system: CEM cells; test: Apoptosis assay (caspase-3 activity, NucView substrate) in CEM cells; assay type: cell-based, human; details: 0.3 µM, 24 h
Method: Figure 1 Cytostatic and cytotoxic activity of TJ191 in T-cell leukemia/lymphoma cells (A) Chemical structure of TJ191. (B) Effect of TJ191 on the growth of human T-cell leukemia/lymphoma cell lines. (C) Pro-apoptotic effect of TJ191 in CEM cells. Cells were incubated with TJ191 for 8 h or 24 h and apoptosis was determined based on caspase-3 activity using the NucView […] Caspase-3 substrate, according to the manufacturer’s instruction, and fluorescence microscopy (Axiovert 200 M inverted microscope, Zeiss). Left panel, representative fluorescence microscopy images are shown; scale bars, 50 µm. Right panel, quantification of the apoptosis rate is shown. Bars represent the mean percentage of cells stained positive for caspase-3 of three different sections; bars, ± S.E.M. Data are representative of two independent experiments.
6 × 10^5 CEM cells/well were seeded into 96-well plates and treated with TJ191 in the presence of 2 µM NucView 488 caspase substrate (Biotium, Hayward, CA). When cells undergo apoptosis, the caspase substrate is cleaved by activated caspase-3/7 to release the DNA dye NucView 488, which stains the nucleus with bright green fluorescence. Cells were fixed at indicated times in 2% paraformaldehyde for 10 min at room temperature and analyzed for NucView 488 staining using a Carl Zeiss Axiovert 200 M inverted microscope (Zeiss, Göttingen, Germany).

[2] = test system: MT-4 cells; test: Proliferation assay, MT-4 cells; assay type: cell-based, human; details: three days, cell counting, read-out: IC50 (50% inhibition of cell growth)
Method: (§1) PBMCs were isolated from Buffy coats obtained from healthy blood donors (after receiving informed consent) using lymphoprep according to the manufacturer’s instructions. PBMCs were then stimulated with interleukin-2 (2 ng/ml, R&D systems, Abingdon, UK) and phytohemagglutinin (2 µg/ml, Sigma-Aldrich) for three days and used in the experiments described below. Human T-cell leukemia/lymphoma cell lines CCRF-CEM (referred to as CEM), JURKAT, MOLT-3, MOLT-4, SUP-T1, MT-2, MT-4, C8166, HSB-2, and HUT-78 were obtained from ATCC (Middlesex, UK). Cells were cultured in RPMI-1640 medium supplemented with 10% fetal bovine serum (FBS, Gibco, Erembodegem, Belgium) and 2 mM L-glutamine (Gibco). […] After three days, cells were counted using the coulter cell counter (Analis, Belgium). The IC50 value refers to the compound concentration that causes 50% inhibition of cell growth.

[3] = test system: MT-2 cells; test: Proliferation assay, MT-2 cells; assay type: cell-based, human; details: three days, cell counting, read-out: IC50 (50% inhibition of cell growth)
Method: as §1

[4] = test system: MOLT-4 cells; test: Proliferation assay, MOLT-4 cells; assay type: cell-based, human; details: three days, cell counting, read-out: IC50 (50% inhibition of cell growth)
Method: as §1

[5] = test system: tumor cell lines; set-up: method as in PMID 28365318; details: cited from earlier work
[6] = test system: HUT-78 cells; test: Proliferation assay, HUT-78 cells; assay type: cell-based, human
Method: as §1

[7] = test system: primary human fibroblasts; set-up: method as in PMID 28365318; details: read-out: IC50, growth of primary human fibroblasts; cited from earlier work
[8] = test system: SUP-T1 cells; test: Proliferation assay, SUP-T1 cells; assay type: cell-based, human; details: three days, cell counting, read-out: IC50 (50% inhibition of cell growth)
Method: as §1

[9] = test system: CEM cells; test: Proliferation assay, CEM cells; assay type: cell-based, human; details: three days, cell counting, read-out: IC50 (50% inhibition of cell growth)
Method: as §1

[10] = test system: TβRIII KO1 and KO2 HUT-78 cells; test: Proliferation assay, TβRIII knock-out HUT-78 cells (KO1 and KO2); assay type: cell-based, human; details: three days, cell counting
Method: (§2) Human T-cell leukemia/lymphoma and prostate cancer cell lines were seeded into 96-well plates at a density of 60 × 10^3 and 20 × 10^3 cells/well respectively, and treated with 5-fold dilutions of TJ191, cladribine, 6-MP, ara-C, 6-TG, adriamycine or endoxan. 200 × 10^3 PBMCs/well were seeded and treated as indicated above. After three days, cells were counted using the coulter cell counter (Analis, Belgium). The IC50 value refers to the compound concentration that causes 50% inhibition of cell growth.

[11] = test system: HSB-2 cells; test: Proliferation assay, HSB-2 cells; assay type: cell-based, human; details: three days, cell counting, read-out: IC50 (50% inhibition of cell growth)
Method: as §1

[12] = test system: CEM-R cells; test: Proliferation assay, TJ191-selected resistant CEM cells (CEM-R); assay type: cell-based, human; details: selected one month at 100-fold IC50 concentration of TJ191; three days growth
Method: as §2

[13] = Water solubility; assay type: physicochemical; details: precludes in vivo testing
[14] = test system: PBMCs; set-up: method as in PMID 28365318; details: read-out: IC50, growth of PBMCs; cited from earlier work
[15] = test system: C8166 cells; test: Proliferation assay, C8166 cells; assay type: cell-based, human; details: three days, cell counting, read-out: IC50 (50% inhibition of cell growth)
Method: as §1

[16] = test system: JURKAT cells; test: Proliferation assay, JURKAT cells; assay type: cell-based, human; details: three days, cell counting, read-out: IC50 (50% inhibition of cell growth)
Method: as §1

[17] = test system: MOLT-3 cells; test: Proliferation assay, MOLT-3 cells; assay type: cell-based, human; details: three days, cell counting, read-out: IC50 (50% inhibition of cell growth)
Method: as §1

[18] = test system: PBMCs; test: Proliferation assay, PBMCs; assay type: cell-based, human; details: PBMCs stimulated with IL-2 and phytohemagglutinin, three days, cell counting, read-out: IC50 (50% inhibition of cell growth)
Method: PBMCs were isolated from Buffy coats obtained from healthy blood donors (after receiving informed consent) using lymphoprep according to the manufacturer’s instructions. PBMCs were then stimulated with interleukin-2 (2 ng/ml, R&D systems, Abingdon, UK) and phytohemagglutinin (2 µg/ml, Sigma-Aldrich) for three days and used in the experiments described below. Human T-cell leukemia/lymphoma cell lines CCRF-CEM (referred to as CEM), JURKAT, MOLT-3, MOLT-4, SUP-T1, MT-2, MT-4, C8166, HSB-2, and HUT-78 were obtained from ATCC (Middlesex, UK). Cells were cultured in RPMI-1640 medium supplemented with 10% fetal bovine serum (FBS, Gibco, Erembodegem, Belgium) and 2 mM L-glutamine (Gibco).
as §2

With “2-amino-3-methylcarboxy-5-heptyl-thiophene [TJ191]” the “Maximum apoptotic rate (cells positive for caspase-3)” value [1] was ~80%, the IC50 [2] was 47 ± 5 µM and the IC50 [3] was 320 ± 86 nM. For the same compound, the IC50 [4] was 220 ± 110 nM, the IC50 ([5]; drug-insensitive tumor cell lines, read-out: IC50 in drug-insensitive tumor cell lines) was ~60 µM and the IC50 ([5]; drug-sensitive tumor cell lines, read-out: IC50 in drug-sensitive tumor cell lines) was ~0.1 µM. For the same compound, the IC50 ([6]; HUT-78 cells (parental), three days, cell counting, read-out: IC50 (50% inhibition of cell growth)) was 17 ± 10 µM, the “Fold less sensitive, parental HUT-78 versus CEM cells” value ([6]; ratio of IC50 HUT-78 to IC50 CEM) was 130 fold and the IC50 [7] was > 100 µM. The IC50 [8] was 1500 ± 20 nM, the IC50 [9] was 130 ± 20 nM and the “Change of IC50 in TβRIII KO1 and KO2 cells compared with parental or scrambled control HUT-78 cells” value [10] was “reduced at least four- to five-fold”. For the same compound, the IC50 [11] was 260 ± 160 nM, the “Reduced sensitivity of CEM-R compared with wild-type CEM” value [12] was ~100 fold and the Water solubility [13] was “relative water insolubility”. For the same compound, the IC50 [14] was > 100 µM, the IC50 [15] was 3.1 ± 0.5 µM and the IC50 [16] was 130 ± 80 nM. The IC50 [17] was 260 ± 190 nM.
In the case of `Nc1nc2nc[nH]c2c(=S)[nH]1` [6-TG, 6-thioguanine], the IC50 ([18]; Homo sapiens, PBMC, 72 h) is reported as 570 ± 270 nM.
`COc1cccc2c1C(=O)c1c(O)c3c(c(O)c1C2=O)C[C@@](O)(C(=O)CO)C[C@@H]3O[C@H]1C[C@H](N)[C@H](O)[C@H](C)O1` [adriamycine] gave an IC50 [18] of 79 ± 62 nM.
`Nc1ccn([C@@H]2O[C@H](CO)[C@@H](O)[C@@H]2O)c(=O)n1` [ara-C, 1-β-D-arabinofuranosyl cytosine] gave an IC50 ([18]; Homo sapiens, PBMC, 72 h) of 880 ± 600 nM.
`Nc1nc(Cl)nc2c1ncn2[C@H]1C[C@H](O)[C@@H](CO)O1` [cladribine, Cladribine] showed an IC50 ([18]; Homo sapiens, PBMC, 72 h) of 180 ± 90 nM.
In the case of `O=P1(N(CCCl)CCCl)NCCCO1` (stereo not drawn) [endoxan, cyclophosphamide, reference compound], the “Change of IC50 in TβRIII KO1 and KO2 cells compared with parental or scrambled control HUT-78 cells” value [10] is reported as “no significant difference”.
